{"source": "patent US20110229584A1", "about": "“Compound for the control of herpes simplex virus using glycyrrhizic acid, lipoic acid, allantoin, and slippery elm” (priority 2010, published 2011)", "origin": "cited, not measured here", "key": {"[1]": {"tested_on": "severe acute respiratory syndrome (SARS)"}, "[2]": {"tested_on": "human aortic endothelial cells"}, "HSV-1 [3]": {"tested_on": "HSV-1", "details": "applied topically to infected epidermal areas"}, "HSV-1 [4]": {"tested_on": "HSV-1"}, "zoster": {"tested_on": "zoster", "details": "incubated with the viruses for more than 30 minutes"}, "Epstein-Barr": {"tested_on": "Epstein-Barr", "details": "incubated with the viruses for more than 30 minutes"}, "HSV-2": {"tested_on": "HSV-2", "details": "incubated with the viruses for more than 30 minutes"}, "HSV-1 [5]": {"tested_on": "HSV-1", "remark": "listed apart in the source"}}, "data": [{"smiles": "CC1(C)[C@@H](O)CC[C@]2(C)[C@H]3C(=O)C=C4[C@@H]5C[C@@](C)(C(=O)O)CC[C@]5(C)CC[C@@]4(C)[C@]3(C)CC[C@@H]12", "note": "[glycrrhetic acid]", "values": [{"measurement": "inhibition of severe acute respiratory syndrome (SARS)", "setting": "[1]", "value": "inhibit"}]}, {"smiles": "O=C(O)CCCCC1CCSS1", "note": "(stereo not drawn) [Lipoic acid, alpha-Lipoic acid]", "values": [{"measurement": "LPS-caused expression of cellular adhesion molecules and adherence of monocytes to human aortic endothelial cells", "setting": "[2]", "value": "inhibit"}, {"measurement": "LPS-triggered NF-B DNA binding activities", "setting": "[2]", "value": "inhibited"}]}, {"smiles": "CCCCCCCCCCCCCCCCCCCCCCO", "note": "[Docosanol, docosanol]", "values": [{"measurement": "decrease of mean time of healing", "setting": "HSV; both treatment phases, applied early in the stages of infection", "value": "more than 50%"}, {"measurement": "healing time of first episodes with treatment (average)", "setting": "HSV; first episodes", "value": 5.4, "unit": "days"}, {"measurement": "reduction of healing times of first episodes (average)", "setting": "HSV; first episodes, from 7.3 days", "value": 1.9, "unit": "days"}]}, {"smiles": "Cl.NCCCC[C@H](N)C(=O)O", "note": "[Lysine monohydrochloride, L-Lysine Monohydrochloride]", "values": [{"measurement": "inactivation of HSV-1", "setting": "HSV-1 [3]", "value": "not to be able to inactivate"}]}, {"smiles": "Nc1nc2c(ncn2CCC(CO)CO)c(=O)[nH]1", "note": "[Penciclovir]", "values": [{"measurement": "decrease of pain duration", "setting": "HSV-1 [4]; from 4.1 days", "value": 0.6, "unit": "days"}, {"measurement": "healing time of the lesions with treatment", "setting": "HSV-1 [4]; treated group", "value": 4.8, "unit": "days"}, {"measurement": "pain duration with treatment", "setting": "HSV-1 [4]; treated group", "value": 3.5, "unit": "days"}, {"measurement": "lesion virus shedding", "setting": "HSV-1 [4]; versus placebo", "value": "marginally changed"}, {"measurement": "healing of the lesions faster versus placebo", "setting": "HSV-1 [4]; versus placebo 5.5 days", "value": 0.7, "unit": "days"}]}, {"smiles": "CC1(C)[C@@H](O[C@H]2O[C@H](C(=O)O)[C@@H](O)[C@H](O)[C@H]2O[C@@H]2O[C@H](C(=O)O)[C@@H](O)[C@H](O)[C@H]2O)CC[C@]2(C)[C@H]3C(=O)C=C4[C@@H]5C[C@@](C)(C(=O)O)CC[C@]5(C)CC[C@@]4(C)[C@]3(C)CC[C@@H]12", "note": "[Glycyrrhizic acid]", "values": [{"measurement": "inactivation of zoster", "setting": "zoster", "value": "more than 90%"}, {"measurement": "inactivation of Epstein-Barr", "setting": "Epstein-Barr", "value": "more than 90%"}, {"measurement": "inactivation of HSV-2", "setting": "HSV-2", "value": "more than 90%"}, {"measurement": "growth and cytopathic effect of vaccinia", "setting": "vaccinia", "value": "inhibit"}, {"measurement": "deactivation of HSV", "setting": "Herpes simplex (HSV)", "value": "irreversibly deactiveate"}, {"measurement": "growth and cytopathic effect of Herpes simplex (HSV)", "setting": "Herpes simplex (HSV)", "value": "inhibit"}, {"measurement": "growth and cytopathic effect of Newcastle's Disease", "setting": "Newcastle's Disease", "value": "inhibit"}, {"measurement": "growth and cytopathic effect of vesicular viomantitis", "setting": "vesicular viomantitis", "value": "inhibit"}, {"measurement": "inhibition of severe acute respiratory syndrome (SARS)", "setting": "[1]", "value": "inhibit"}, {"measurement": "activity against in vivo HSV-1", "setting": "HSV-1 [5]; in vivo", "value": "strong activity"}, {"measurement": "resistance of thermally injured mice to HSV-1", "setting": "HSV-1 [5]; thermally injured mice", "value": "improve"}]}]}
